Test results: patent US20230130134A1, “METHOD OF TREATING VIRAL INFECTIONS WITH HEXOSE TYPE MONOSACCHARIDES AND ANALOGS THEREOF” (Board of Regents, The University of Texas System, priority 2020, published 2023)

Experiment: Tissue distribution of tritium-labeled WP1122 and 2-DG in lungs after intravenous administration (liquid scintillation counting)
Assay type: in vivo
Settings: male Sprague-Dawley rats; for Detection of 2-DG and metabolites in lungs: i.v., 15, 30, 60 min, 6 and 24 hours post-dose
Procedure: Experimental procedures. The pharmacokinetic and tissue organ distribution of WP1122 and 2-DG labeled with tritium was analyzed in male Sprague-Dawley rats. Animals (n=3 per timepoint) were dosed intravenously with 2-DG or WP1122 at equimolar dose 0.2 and 0.13 g/kg for WP1122 and 2-DG respectively. The animals were euthanized at 15, 30, 60 min and 6- and 24-hours post-dose. The organs were extracted, rinsed with PBS and radioactivity was measured using Liquid Scintillation Counting (LCS).

For `OC[C@H]1OC(O)C[C@@H](O)[C@@H]1O` (stereo partly drawn) [Example 2-DG, (4R,5S,6R)-6-(hydroxymethyl)tetrahydro-2H-pyran-2,4,5-triol, reference compound], the “Detection of 2-DG and metabolites in lungs” value was “detected in lungs in all tested time-points”.

For `CC(=O)OC[C@H]1OC(O)C[C@@H](OC(C)=O)[C@@H]1O` (stereo partly drawn) [WP1122, ((2R,3S,4R)-4-acetoxy-3,6-dihydroxytetrahydro-2H-pyran-2-yl)methyl acetate], the “Detection of 2-DG and metabolites in lungs” value was “detected in lungs in all tested time-points”, the “Presence of metabolites in lungs compared with 2-DG administration” value (i.v., all time points including 24 hours after administration) was “Increased presence of metabolites” and the “Highest concentration of radiolabeled compounds in lungs relative to radioactivity from 2-DG administration” value (i.v., equimolar 0.2 g/kg WP1122 vs 0.13 g/kg 2-DG, 15 min post injection) was “nearly three times higher”.
